Consider three compounds from publication PMC12589998, “Development and validation of a UHPLC-QqQ-MS/MS method for simultaneous determination of fifteen major components from Oroxyli seed extract in rat plasma and its application in the pharmacokinetic study” (Frontiers in Pharmacology, 2025).

A short description of data set [1]: Stability of the analytes in rat plasma samples under storage conditions. Conditions: n = 6. Type of data set: physicochemical. The method, then: The bioanalytical method validation was evaluated for specificity, linearity, sensitivity, precision and accuracy, recovery, matrix effect, and stability to ensure compliance with the U.S. Food and Drug Administration (FDA) guidance on precise quantitative analysis ([Center for Drug Evaluation and Research of the U.S., 2018]). The assessment of specificity was conducted by comparing the chromatograms obtained from blank plasma, blank plasma spiked with the target components, and samples gathered following the oral administration of OS extract. Calibration curves were constructed by plotting the ratio for the peak area of the analyte to IS versus the concentration, with 1/x^2 serving as the weighting factor. The lower limit of quantification (LLOQ) was defined as the concentration at which a signal to noise ratio of […] 10 was achievable. The evaluation of precision and accuracy involved the analysis of six QC samples, both within a single day and over 3 consecutive days. Accuracy was expressed as the relative error (RE), whereas precision was gauged via relative standard deviation (RSD). Extraction recovery was ascertained by juxtaposing the responses of analytes in extracted samples against those in samples that were spiked post-extraction. The matrix effect was scrutinized by determining the ratio of the responses of the analytes in post-extraction spiked samples to those in the mixed standard solution. The stability of the analytes in plasma samples was explored under diverse conditions: encompassing a 12-h period in an autosampler, a 4-h interval at room temperature, three cycles of freezing–thawing, and a 7-day duration at −80 °C.
The retention times of the analyte peaks were consistent with those in the spiked samples. […] The LLOQs for chrysin, chrysin-7-O-β-D-glucuronide, hispidulin, wogonoside, quercetin, quercetin-7-O-β-D-glucoside, baicalin, baicalein, acacetin, oroxin A, oroxin B, oroxylin A, oroxylin A-7-O-β-D-glucuronide, apigenin, and scutellarein were 1.0, 2.0, 1.0, 0.3, 1.0, 0.1, 9.0, 6.0, 0.3, 6.0, 4.0, 1.0, 2.0, 0.5, and 0.3 ng/mL, respectively. In Supplementary Table S2, the RE for accuracy is between −13.77% and 12.55%, and the RSD for precision is below 14.55% (both intra- and inter-day). […] The matrix effect varied from 60.15% to 115.53%, with RSD values below 10.54%. In Supplementary Table S4, the RSD values for stability of the analytes are found to be lower than 13.98%, meaning that these components were stable under the following conditions: encompassing a 12-h period in an autosampler, a 4-h interval at room temperature, three cycles of freezing and thawing, and a 7-day duration at −80 °C.

A short description of data set [2]: Pharmacokinetic study in rats after oral administration of OS extract (UHPLC-QqQ-MS/MS of plasma). Format: in vivo, rat. The following applies: for concentration at 0.5 h: SD, 3 g/kg, rat plasma collected 0.5 h after oral administration of the OS extract, read-out: Concentration printed in MRM chromatogram of plasma sample (Figure 2C). The method, then: The UHPLC-QqQ-MS/MS system consisted of a 1290 UHPLC and a 6470 mass spectrometer (Agilent Technologies). Chromatographic separation was realized on utilizing an ACQUITY UPLC BEH C18 column (2.1 × 100 mm, 1.7 μm) maintained at 35 °C. The mobile phase consisting of 0.1% formic acid in water (A) and acetonitrile (B) was utilized with the elution program set at 0 min–1 min, 5% B–30% B; 1 min–4 min, 30% B– 50% B; 4 min–8 min, and 50% B–90% B. The injection volume was 5 μL, and the flow rate was 0.3 mL/min. The mass spectrometry parameters in the negative ion mode, gas temperature, flow rate, and nebulizer pressure were 300 °C, 7 L/min, and 35 psi, respectively. The mass spectra properties of the 15 analytes and the IS are illustrated in Table 1.
To 100 μL of the plasma sample, 20 μL of methanol, 20 μL of IS solution (methylparaben, 1 μg/mL), and 5 μL of formic acid were added and vortexed for a duration of 2 min. Subsequently, the mixture underwent extraction with 800 μL of acetonitrile for 3 min. Following 10 min of centrifugation at 12,000 g, the supernatant was collected and evaporated to dryness under N2 to obtain the residue. Finally, the residue was reconstituted in 50% methanol (100 μL) and utilized for analysis.
Before initiating the study, six male SD rats underwent a 12-h fasting period, during which they were granted unrestricted access to water. Then, the rats were administered an oral dose of 3 g/kg of the OS extract, which had been dissolved in 0.5% CMC-Na aqueous solution. Blood samples, approximately 200 μL each, were collected at various time points: before administration and at 0.03, 0.08, 0.17, 0.25, 0.5, 0.75, 1, 2, 4, 6, 8, 10, 12, 24, 36, and 48 h post-administration. Following 10 min of centrifugation at 6,000 g, the resultant samples were stored at −80 °C.
The developed method was effectively applied to study the pharmacokinetics in rats following oral administration of the OS extract. […] This was likely due to their low concentrations in the OS extract. Ultimately, nine components (chrysin, chrysin-7-O-β-D-glucuronide, baicalin, baicalein, oroxin A, oroxin B, oroxylin A, oroxylin A-7-O-β-D-glucuronide, and scutellarein) were successfully fitted with pharmacokinetic parameters. The average plasma concentration–time profiles of these substances are depicted in Figure 3. […] All data were presented as the mean ± standard deviation (Mean ± SD).

Setting [3] is: spiked concentration 2000 ng/mL.
[4] abbreviates: spiked concentration 32000 ng/mL.
[5] abbreviates: rat plasma after oral OS extract.

“Also recorded” adds a separate entry of the source. Where two headings read alike, the source gives them in different places.

As to `O=C(O)[C@H]1O[C@@H](Oc2cc3oc(-c4ccccc4)cc(=O)c3c(O)c2O)[C@H](O)[C@@H](O)[C@@H]1O` [Baicalin, baicalin], the figures for the “Measured, -80°C for 7 days” value in data set [1] (spiked concentration 200 ng/mL), in data set [1] (setting [3]) and in data set [1] (setting [4]) were 196.55 ± 6.22 ng/mL, 2100.51 ± 51.69 ng/mL and 34521.83 ± 3366.83 ng/mL, respectively. For the same compound, the “Measured, Autosampler for 12 h” value in data set [1] (spiked concentration 200 ng/mL) is given as 197.37 ± 12.83 ng/mL; in data set [1] (setting [3]) it was 1919.30 ± 46.13 ng/mL; in data set [1] (setting [4]) it was 31375.83 ± 425.60 ng/mL. Moreover, the “Measured, Room temperature for 4 h” value in data set [1] (spiked concentration 200 ng/mL) is 197.18 ± 11.27 ng/mL; in data set [1] (setting [3]), 2105.21 ± 73.11 ng/mL; in data set [1] (setting [4]), 30814.68 ± 1603.40 ng/mL. For the same compound, the results for the “Measured, Three freeze-thaw cycles” value in data set [1] (spiked concentration 200 ng/mL), in data set [1] (setting [3]) and in data set [1] (setting [4]) were 191.59 ± 7.20 ng/mL, 1965.30 ± 64.97 ng/mL and 32953.20 ± 2649.23 ng/mL, respectively. For the same compound, the concentration at 0.5 h in data set [2] (male) was 10400 ng/mL. Besides, the AUC(0-t) in data set [2] (male, rat plasma, oral 3 g/kg OS extract, n = 6, mean ± SD, read-out: AUC(0-t)) is 257 µg·h/mL; in data set [2] (rat plasma, oral 3 g/kg OS extract, n = 6, mean ± SD), “significantly higher than that of the others”. In addition, in data set [2] (male, rat plasma, oral 3 g/kg OS extract, n = 6, mean ± SD, read-out: AUC(0-∞)), the AUC(0-inf) was determined as 264 µg·h/mL. Moreover, the Cmax in data set [2] (male, rat plasma, oral 3 g/kg OS extract, n = 6, mean ± SD, read-out: Cmax) came out at 13400 ng/mL. For the same compound, the half-life in data set [2] (male, rat plasma, oral 3 g/kg OS extract, n = 6, mean ± SD, read-out: T1/2 (converted)) is 548 ± 69 min. Also, the Tmax in data set [2] (male, rat plasma, oral 3 g/kg OS extract, n = 6, mean ± SD, read-out: Tmax) is 40.2 ± 7.8 min. The “Shape of plasma concentration-time curve” value in data set [2] (setting [5]) is recorded as “significant bimodal phenomena; also recorded: clear bimodal phenomena”.

On to `COc1ccc(-c2cc(=O)c3c(O)cc(O)cc3o2)cc1` [Acacetin, acacetin], for which, in data set [1] (spiked concentration 2 ng/mL), the “Measured, -80°C for 7 days” value came to 1.78 ± 0.11 ng/mL; the “Measured, Autosampler for 12 h” value is listed as 1.78 ± 0.15 ng/mL; the “Measured, Room temperature for 4 h” value worked out at 2.20 ± 0.04 ng/mL; the “Measured, Three freeze-thaw cycles” value is 1.81 ± 0.06 ng/mL. Further, in data set [1] (spiked concentration 20 ng/mL), the “Measured, -80°C for 7 days” value is 17.78 ± 0.87 ng/mL; the “Measured, Autosampler for 12 h” value came to 22.01 ± 1.07 ng/mL; the “Measured, Room temperature for 4 h” value is given as 21.25 ± 1.13 ng/mL; the “Measured, Three freeze-thaw cycles” value stood at 17.60 ± 1.24 ng/mL. In data set [1] (spiked concentration 320 ng/mL), the “Measured, -80°C for 7 days” value was 284.83 ± 15.85 ng/mL; the “Measured, Autosampler for 12 h” value is reported as 317.16 ± 38.69 ng/mL; the “Measured, Room temperature for 4 h” value is given as 313.68 ± 7.94 ng/mL; the “Measured, Three freeze-thaw cycles” value amounted to 282.90 ± 15.75 ng/mL. Also, the concentration at 0.5 h in data set [2] (male) came out at 8 ng/mL. Besides, the Plasma levels entry in data set [2] (setting [5]) is listed as “too weak to obtain comprehensive pharmacokinetic curves”.

As for `COc1c(O[C@@H]2O[C@H](C(=O)O)[C@@H](O)[C@H](O)[C@H]2O)cc(O)c2c(=O)cc(-c3ccccc3)oc12` [Wogonoside, wogonoside], in data set [1] (spiked concentration 2 ng/mL), the “Measured, -80°C for 7 days” value was 1.78 ± 0.17 ng/mL; the “Measured, Autosampler for 12 h” value is on record as 2.07 ± 0.26 ng/mL; the “Measured, Room temperature for 4 h” value is listed as 1.82 ± 0.14 ng/mL; the “Measured, Three freeze-thaw cycles” value was 1.86 ± 0.09 ng/mL. In data set [1] (spiked concentration 20 ng/mL), the “Measured, -80°C for 7 days” value is 22.33 ± 0.89 ng/mL; the “Measured, Autosampler for 12 h” value came out at 22.77 ± 1.13 ng/mL; the “Measured, Room temperature for 4 h” value came to 19.87 ± 0.76 ng/mL; the “Measured, Three freeze-thaw cycles” value stood at 18.01 ± 1.31 ng/mL. Also, in data set [1] (spiked concentration 320 ng/mL), the “Measured, -80°C for 7 days” value came out at 287.53 ± 32.71 ng/mL; the “Measured, Autosampler for 12 h” value is 307.85 ± 37.80 ng/mL; the “Measured, Room temperature for 4 h” value stood at 327.84 ± 23.82 ng/mL; the “Measured, Three freeze-thaw cycles” value came to 310.87 ± 20.44 ng/mL. Besides, in data set [2] (male), the concentration at 0.5 h came to 11 ng/mL. Besides, in data set [2] (setting [5]), the Plasma levels entry was “too weak to obtain comprehensive pharmacokinetic curves”.
